Experiments:
[1] = system: sectioned Achilles tendons; assay: Healing of sectioned Achilles tendons in the rat, urogastrone injected twice daily at the tendon lesion (experiment 1, Table 1); format: in vivo
Protocol: (§1) Male Wistar rats (240 g.) were subjected under general anaesthesia to partial tendonotomy of the left Achilles tendon, the small skin wound was then sutured and the animals allowed to recover. […] Normal saline was injected into a control group of operated animals (group [C]). […] After termination the scar tissue was removed from the point of insertion into the calcaneus bone to the point of merger of the tendon into the muscle mass. Weights of the scar tissue were measured after drying and defatting as described in Greenwald, S. E. and Berry, C. L. Cardiovasc. Res. 12,364-372 (1978). The collagen content was obtained from hydroxyproline measurements as described in Grant, R. A. J. Clin. Path. 17, 685-686 (1964) on the tissue after proteolytic (see Smith, R. L., Gilberson, E., Koliatsu, N., Merchant, T. and Schurman, D. J. Analyst. Biochem. 103, 191-200 (1980)) and alkaline (see Huzar, G., Maiocco, J. and Naftolin, F. Analyt. Biochem. 105 424-439 (1980)) digestion. The DNA content of the digests was determined using a sensitive fluorimetric technique (as described in Hinegardner, R. T. Analyt. Biochem. 39, 197-201). The results are ±SEM and were analyzed by Student' s t test. Figures in parentheses indicate the numbers of animals used in each group.

Intact tendon = assay: Urogastrone injected twice daily into the corresponding region of the unoperated leg (intact tendon, group B, Table 1); format: in vivo, rat; conditions: for Collagen / DNA / dry wt: intact tendon plus urogastrone 20 μg./kg. twice daily, ±SEM
Protocol: as §1

[2] = system: sectioned Achilles tendons; assay: Longer term effects of urogastrone injections on healing of sectioned Achilles tendons in the rat (experiment 2, Table 2); format: in vivo; conditions: for Lesion DNA / Lesion dry wt / Lesion Collagen: ±SEM
Protocol: as §1

[3] = system: sectioned Achilles tendon; assay: Graded doses of urogastrone on healing of sectioned Achilles tendons in rats (Example 2, FIGS. 3 and 4); format: in vivo, rat; conditions: 15 days after surgery
Protocol: The graded doses were injected twice daily into the immediate vicinity of the sectioned tendon.
FIG. 4 corresponds to FIG. 3, but represents graphically the collagen content of the repair lesions at the injected zone 15 days after surgery rather than the dry weight of the scar tissue formed at the said zone 15 days after surgery.
The rats employed were male Wistar rats (240 g) and the Achilles tendons were sectioned as described in Example 1.
Graded doses of urogastrone were given twice daily by injection into the immediate vicinity of the sectioned Achilles tendon in rats. […] FIGS. 3 and 4 present the dry weights and collagen contents respectively of the injected zones 15 days after surgery.

intact tendons = assay: Urogastrone 100 ug/kg injected twice daily into intact tendons in unoperated rats (Example 2); format: in vivo, rat; conditions: highest dose (100 ug./kg. twice daily); 15 days
[4] = system: acid secretion in the stomach; conditions: administered parenterally; known; cited from earlier work
[5] = 5 days after surgery, sectioned tendon, 20 μg./kg. twice daily at lesion, ±SEM, p < 0.001 vs saline
[6] = 9 days after surgery, sectioned tendon, 20 μg./kg. twice daily at lesion, ±SEM, p < 0.001 vs saline
[7] = first five days following surgery, statistically highly significant
[8] = 30 days after surgery, urogastrone days 1-15 then 15 days without treatment, NS vs saline

## Urogastrone
[1]; [5]
  Lesion DNA: 517 ± 12 µg
  Lesion dry wt: 42.9 ± 2.0 mg
[1]; [6]
  Lesion DNA: 653 ± 20 µg
  Lesion dry wt: 61.1 ± 2.0 mg
[1]; 9 days after surgery, sectioned tendon, 20 μg./kg. twice daily at lesion, ±SEM, p < 0.05 vs saline
  Lesion Collagen: 16.8 ± 0.9 mg
[1]; 15 days after surgery, sectioned tendon, 20 μg./kg. twice daily at lesion, ±SEM, NS vs saline
  Lesion DNA: 556 ± 23 µg
[1]; 15 days after surgery, sectioned tendon, 20 μg./kg. twice daily at lesion, ±SEM, p < 0.001 vs saline
  Lesion dry wt: 53.3 ± 2.8 mg
[1]; day 15, not significantly different from the control value
  Apparent increase in DNA content of urogastrone-treated lesions: 8%
[1]; fifteen days after surgery
  Increase in collagen over saline-injected controls: 28%
  Increase in dry weight over saline-injected controls: 24%
[1]; [7]
  Increase in collagen content of scar tissue compared with saline-injected controls: 61%
  Increase in dry weight of scar tissue compared with saline-injected controls: 38%
Intact tendon; 5 days, NS vs intact tendon
  Collagen: 6.1 ± 0.3 mg
  DNA: 94.3 ± 8.5 µg
  dry wt: 12.7 ± 1.6 mg
Intact tendon; 9 days, NS vs intact tendon
  Collagen: 7.0 ± 0.5 mg
  dry wt: 14.1 ± 1.2 mg
Intact tendon; 9 days, p < 0.05 vs intact tendon
  DNA: 124 ± 10 µg
Intact tendon; 15 days, NS vs intact tendon
  Collagen: 7.0 ± 0.3 mg
  DNA: 101 ± 6 µg
Intact tendon; injected twice daily, throughout the treatment period, possible exception of increased DNA content after nine days
  Effect on unoperated tendon in the opposite leg: little or no effect
[2]; 15 days after surgery, urogastrone days 1-15, 20 ug./kg. twice daily, NS vs saline
  Lesion DNA: 668 ± 32 µg
[2]; 15 days after surgery, urogastrone days 1-15, 20 ug./kg. twice daily, p < 0.001 vs saline
  Lesion dry wt: 61.8 ± 1.3 mg
[2]; 15 days after surgery, urogastrone days 1-15, 20 ug./kg. twice daily, p < 0.01 vs saline
  Lesion Collagen: 28.1 ± 0.9 mg
[2]; [8]
  Lesion Collagen: 28.7 ± 1.2 mg
  Lesion dry wt: 50.2 ± 1.1 mg
[2]; 30 days after surgery, urogastrone days 1-15 then 15 days without treatment, p < 0.05 vs saline
  Lesion DNA: 397 ± 17 µg
[2]; 30 days after surgery, urogastrone days 1-30, 20 ug./kg. twice daily, NS vs saline
  Lesion DNA: 495 ± 17 µg
[2]; 30 days after surgery, urogastrone days 1-30, 20 ug./kg. twice daily, p < 0.001 vs saline
  Lesion Collagen: 32.1 ± 1.3 mg
[2]; 30 days after surgery, urogastrone days 1-30, 20 ug./kg. twice daily, p < 0.01 vs saline
  Lesion dry wt: 56.8 ± 2.0 mg
[2]; dosing stopped after fifteen days, treatment free for a further fifteen days
  Dry weight and collagen content of the scars versus animals untreated throughout: no longer distinguishable
[2]; thirty days on urogastrone
  Collagen content of repair lesion higher than saline-treated control lesions: 27%
  DNA contents of urogastrone versus saline-treated lesions: essentially the same
  Dry weight of repair lesion higher than saline-treated control lesions: 19%
[3]; 20 μg./kg. twice daily
  Collagen contents of the repair lesions: not in the collagen contents
  Dry weights of the repair lesions: statistically significant increase
[3]; 50 μg./kg. twice daily
  Collagen contents of the repair lesions: significantly increased
  Dry weights of the repair lesions: significantly increased
[3]; 100 μg./kg. twice daily
  Collagen contents of the repair lesions: significantly increased
  Dry weights of the repair lesions: significantly increased
Intact tendons
  Collagen contents: increased
  Dry weight: increased
[4]
  Acid secretion in the stomach: inhibit acid secretion in the stomach

— patent publication US4731357A (Imperial Chemical Industries PLC, priority 1985, dated 1988)
